# Measurements: PubChem BioAssay (NCI)
# Where “and” joins values, the source holds several entries; their conditions need not be identical. Equal values may be shown once.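 Each compound was tested at five concentrations against cells in 96-well plates for 48 hours. GI50 is the concentration that inhibits growth by half. TGI marks complete inhibition of growth.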
# Legend:
# Experiment in all cases: growth of human tumour cells (NCI), 48 h
# [1] = tested on: MOLT-4 leukemia
# [2] = tested on: MALME-3M melanoma
# [3] = tested on: NCI-H460 lung
# [4] = tested on: OVCAR-4 ovarian
# [5] = tested on: K-562 leukemia
# [6] = tested on: COLO 205 colon
# [7] = tested on: UACC-257 melanoma
# [8] = tested on: NCI-H226 lung
# [9] = tested on: SNB-19 CNS
# [10] = tested on: RPMI-8226 leukemia
Structure (SMILES),TGI [1],TGI [2],TGI [3],TGI [4],TGI [5],TGI [6],TGI [7],TGI [8],TGI [9],TGI [10],GI50 [1],GI50 [2],GI50 [3],GI50 [4],GI50 [5],GI50 [6],GI50 [7],GI50 [8],GI50 [9],GI50 [10]
CC1=C(C(=O)NNS(=O)(=O)c2ccc(C)cc2)CC(C(=O)NNS(=O)(=O)c2ccc(C)cc2)=C(C)N1,> 100 µM,> 100 µM,> 100 µM,> 100 µM,> 100 µM,> 100 µM,> 100 µM,> 100 µM,> 100 µM,> 100 µM,–,–,–,–,–,–,–,–,–,–
COc1ccc2c3c(Nc4ccc(/C(C)=N/O)cc4)[nH]c4ccccc4c-3c(N=O)c2c1,2.84 µM,27.6 µM,> 100 µM,68.2 µM,2.8 µM,34.9 µM,8.56 µM,38.3 µM,51.9 µM,5.14 µM,0.951 µM,6.31 µM,29.5 µM,28.4 µM,0.665 µM,19.5 µM,3.08 µM,17 µM,22.9 µM,2.52 µM
O=[N+]([O-])c1ccc(CSCc2ccc(Cl)cc2)cc1,> 100 µM,> 100 µM,> 100 µM,> 100 µM,> 100 µM,> 100 µM,> 100 µM,> 100 µM,> 100 µM,> 100 µM,–,–,–,–,–,–,–,–,–,–
C/C(=N\NC(=S)N1CC2CCC(CC2)C1)c1ccccn1,3.74 µM,1.49 µM,1.37 µM,1.1 µM,2.21 µM,0.0719 µM,0.357 µM,1.91 µM,3.78 µM,0.78 µM,0.0598 µM,0.121 µM,0.044 µM,0.0238 µM,< 0.0108 µM,0.0146 µM,0.0214 µM,0.394 µM,0.345 µM,0.0368 µM
CC(O)CC(O)(C(F)(F)F)C(F)(F)F (stereo unspecified),> 10 µM,> 10 µM,> 10 µM,> 10 µM,> 10 µM,> 10 µM,> 10 µM,> 10 µM,> 10 µM,> 10 µM,–,–,–,–,–,–,–,–,–,–
C=CCn1c2c(sc1=S)C(S)N=CN2 (stereo unspecified),> 100 µM,> 100 µM,> 100 µM,> 100 µM,> 100 µM,> 100 µM,> 100 µM,> 100 µM,> 100 µM,> 100 µM,–,–,–,–,–,–,–,–,–,–
C[C@]12CC[C@@H]3c4ccc(O)c([N+](=O)[O-])c4CC[C@H]3[C@@H]1CC[C@@H]2NS(=O)(=O)c1cccc(Br)c1,13.4 µM,5.4 µM,3.56 µM,2.94 µM,10.7 µM,7.26 µM,5.04 µM,8.53 µM,14.1 µM,6.27 µM,2.98 µM,2.17 µM,1.81 µM,1.47 µM,3.1 µM,2.78 µM,2.1 µM,2.9 µM,3.53 µM,2.44 µM
OCC(O)CNc1ccnc2cc(Cl)ccc12 (stereo unspecified),> 100 µM,> 100 µM,> 100 µM,> 100 µM,> 100 µM,> 100 µM,> 100 µM,> 100 µM,> 100 µM,> 100 µM,–,–,–,–,–,–,–,–,–,–
[F][Sn]([F])([c]1ccccc1)[c]1ccccc1,5.22 µM,3.33 µM,4.97 µM,3.39 µM,4.96 µM,3.97 µM,3.2 µM,4.26 µM,5.58 µM,3.79 µM,1.17 µM,1.8 µM,2.27 µM,1.68 µM,0.702 µM,1.81 µM,1.56 µM,2.11 µM,2.25 µM,1.11 µM
O=C(O)CN(c1ccccc1)S(=O)(=O)c1ccc([N+](=O)[O-])cc1,> 100 µM,> 100 µM,> 100 µM,> 100 µM,> 100 µM,> 100 µM,> 100 µM,> 100 µM,> 100 µM,> 100 µM,–,–,–,–,–,–,–,–,–,–
Cc1cccc(C(C)C)c1NC(=O)C(=O)C(C(=O)c1ccccc1F)C1OC(=O)c2ccccc21 (stereo unspecified),27.9 µM,26.9 µM,83.9 µM,74.2 µM,> 100 µM,41 µM,29.4 µM,21.5 µM,29 µM,28.5 µM,–,–,–,–,–,–,–,–,–,–
O=c1[nH]c(=O)n([C@H]2CCCO2)cc1F,> 5000 µM,> 5000 µM,830 µM and > 3640 µM,> 5000 µM,> 5000 µM,> 5000 µM,> 5000 µM,720 µM and > 5000 µM,> 5000 µM,> 5000 µM,> 3500 µM,1360 µM,291 µM,–,2770 µM,1090 µM,3540 µM,3650 µM,–,666 µM
N#CC(C(=O)CCC(=O)Nc1cccc(C(F)(F)F)c1)c1ccc(Cl)cc1 (stereo unspecified),> 100 µM,> 100 µM,> 100 µM,> 100 µM,> 100 µM,> 100 µM,> 100 µM,> 100 µM,> 100 µM,> 100 µM,–,–,–,–,–,–,–,–,–,–
COc1cc(C2C(C(=O)Nc3cc(F)c(F)cc3F)=C(C)NC(C)=C2C(=O)Nc2cc(F)c(F)cc2F)ccc1O,45.2 µM,74.5 µM,> 100 µM,> 100 µM,49.6 µM,> 100 µM,54.8 µM,79.5 µM,> 100 µM,47.3 µM,–,–,–,–,–,–,–,–,–,–
O=C(NCc1ccc(S(=O)(=O)c2cc(F)cc(F)c2)cc1)c1ccc2nccn2c1,> 100 µM,> 65 µM,> 100 µM,> 77.3 µM,> 100 µM,> 100 µM,> 100 µM,> 73.9 µM,> 100 µM,> 100 µM,> 27.2 µM,> 41.6 µM,0.514 µM,11.3 µM,0.0103 µM,–,> 59.1 µM,> 46 µM,2.56 µM,–
COC(=O)/C(=C\c1ccc(N(CCC#N)CCC#N)cc1)NC(=O)c1cc([N+](=O)[O-])ccc1Cl,> 100 µM,> 100 µM,> 100 µM,> 100 µM,> 100 µM,> 100 µM,> 100 µM,> 100 µM,> 100 µM,> 100 µM,–,–,–,–,–,–,–,–,–,–
